Laboratory results published in publication PMC3930709, “Selective Activation of hTRPV1 by N-Geranyl Cyclopropylcarboxamide, an Amiloride-Insensitive Salt Taste Enhancer” (PLoS ONE, 2014).

What was measured:
hTRPV1 = target: T1, hTRPV1 (Homo sapiens, UniProt Q8NER1); experiment: Whole-cell patch clamp recording, hTRPV1-expressing HEK293T cells; assay type: cell-based; details: capsaicin 100 nM; NGCC 10^3 µM; holding -80 mV
T1 construct: expressed in transfected cells; host or cells: HEK293T
Method: (§1) Mouse ASIC1a (mASIC1a) was a kind gift from John A. Wemmie (University of Iowa, IA, USA). For electrophysiological experiments, HEK293T cells were cultured in DMEM supplemented with 10% FBS and 0.2% penicillin/streptomycin and transiently transfected using Lipofectamine 2000 (Invitrogen) with various cDNAs. For TRPV1 channel expression, cells were transfected with hTRPV1, for ASIC1a homomeric channel expression, cells were transfected with mASIC1a. When needed, 0.1–0.2 µg of cDNA encoding tetrameric red fluorescence protein (DsRed) was co-transfected with the cDNA as a marker for successfully transfected cells. For non-transfected cells, cells were transfected with 0.1–0.2 µg of cDNA encoding DsRed alone. The next day, cells were plated onto poly-L-lysine-coated coverslip chips, and fluorescent cells were studied within 1–2 days.
The whole-cell configuration was used to voltage-clamp at room temperature (22–25°C). Electrodes pulled from glass micropipette capillaries (Sutter Instrument) had resistances of 2–2.5 MΩ, and series resistance errors were compensated >60%. Fast and slow capacitances were compensated before the application of test-pulse. Recordings were performed using aHEKAEPC-10 amplifier with pulse software (HEKA Elektronik). The pipette solution contained: 140 mM KCl, 5 mM MgCl2, 10 mM HEPES, 0.1 mM 1,2-bis(2-aminophenoxy) ethane N,N,N’,N’-tetraacetic acid(BAPTA), 3 mM Na2ATP, and 0.1 mM Na3GTP, adjusted to pH 7.4 with KOH. The external Ringer’s solution used for recording TRPV1 and TRPA1 currents contained: 150 mM NaCl, 5 mM KCl, 1 mM MgCl2, 2 mM EGTA, 10 mM Glucose, and 10 mM HEPES, adjusted to pH 7.4 with NaOH. TRPV1 and TRPA1 currents were recorded by holding the cell at −80 mV. The external Ringer’s solution used for recording ASIC current contained: 160 mM NaCl, 5 mM KCl, 1 mM MgCl2, 2 mM CaCl2, and 10 mM HEPES, adjusted to pH 7.4 with tetramethylammonium hydroxide. For acidic solution of pH 6.0, HEPES was replaced with MES. ASIC currents were recorded by holding the cell at −70 mV. Reagents were obtained as follows: BAPTA, Na2ATP, Na3GTP, EGTA, and tetramethylammonium hydroxide (Sigma), HEPES (Calbiochem), MES (Alfa Aesar), and other chemicals (Merck).

mASIC1a = target: T2, mASIC1a (Mus musculus, UniProt Q6NXK8); experiment: Whole-cell patch clamp recording, mASIC1a-expressing HEK293T cells; assay type: cell-based; details: NGCC 1 mM; holding -70 mV; n = 5
T2 construct: expressed in transfected cells; host or cells: HEK293T (cDNA gift from John A. Wemmie, University of Iowa)
T2 sequence (Q6NXK8 1-526): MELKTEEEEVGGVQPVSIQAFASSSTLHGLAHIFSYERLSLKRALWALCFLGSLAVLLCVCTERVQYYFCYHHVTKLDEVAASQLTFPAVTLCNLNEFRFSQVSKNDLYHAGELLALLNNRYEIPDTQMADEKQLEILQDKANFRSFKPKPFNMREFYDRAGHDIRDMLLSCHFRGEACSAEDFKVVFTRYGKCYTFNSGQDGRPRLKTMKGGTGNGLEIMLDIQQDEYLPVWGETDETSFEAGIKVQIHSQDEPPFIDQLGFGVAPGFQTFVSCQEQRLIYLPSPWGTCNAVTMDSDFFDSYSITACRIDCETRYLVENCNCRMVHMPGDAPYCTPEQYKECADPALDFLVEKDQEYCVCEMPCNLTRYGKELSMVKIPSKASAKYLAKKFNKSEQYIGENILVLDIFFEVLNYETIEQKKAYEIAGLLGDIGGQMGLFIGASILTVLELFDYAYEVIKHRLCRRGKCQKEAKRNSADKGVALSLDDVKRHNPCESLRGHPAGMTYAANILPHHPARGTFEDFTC
Method: as §1
The whole-cell configuration was used to voltage-clamp at room temperature (22–25°C). Electrodes pulled from glass micropipette capillaries (Sutter Instrument) had resistances of 2–2.5 MΩ, and series resistance errors were compensated >60%. Fast and slow capacitances were compensated before the application of test-pulse. Recordings were performed using aHEKAEPC-10 amplifier with pulse software (HEKA Elektronik). […] TRPV1 and TRPA1 currents were recorded by holding the cell at −80 mV. […] ASIC currents were recorded by holding the cell at −70 mV. […]

T1 sequence (Q8NER1 whole entry): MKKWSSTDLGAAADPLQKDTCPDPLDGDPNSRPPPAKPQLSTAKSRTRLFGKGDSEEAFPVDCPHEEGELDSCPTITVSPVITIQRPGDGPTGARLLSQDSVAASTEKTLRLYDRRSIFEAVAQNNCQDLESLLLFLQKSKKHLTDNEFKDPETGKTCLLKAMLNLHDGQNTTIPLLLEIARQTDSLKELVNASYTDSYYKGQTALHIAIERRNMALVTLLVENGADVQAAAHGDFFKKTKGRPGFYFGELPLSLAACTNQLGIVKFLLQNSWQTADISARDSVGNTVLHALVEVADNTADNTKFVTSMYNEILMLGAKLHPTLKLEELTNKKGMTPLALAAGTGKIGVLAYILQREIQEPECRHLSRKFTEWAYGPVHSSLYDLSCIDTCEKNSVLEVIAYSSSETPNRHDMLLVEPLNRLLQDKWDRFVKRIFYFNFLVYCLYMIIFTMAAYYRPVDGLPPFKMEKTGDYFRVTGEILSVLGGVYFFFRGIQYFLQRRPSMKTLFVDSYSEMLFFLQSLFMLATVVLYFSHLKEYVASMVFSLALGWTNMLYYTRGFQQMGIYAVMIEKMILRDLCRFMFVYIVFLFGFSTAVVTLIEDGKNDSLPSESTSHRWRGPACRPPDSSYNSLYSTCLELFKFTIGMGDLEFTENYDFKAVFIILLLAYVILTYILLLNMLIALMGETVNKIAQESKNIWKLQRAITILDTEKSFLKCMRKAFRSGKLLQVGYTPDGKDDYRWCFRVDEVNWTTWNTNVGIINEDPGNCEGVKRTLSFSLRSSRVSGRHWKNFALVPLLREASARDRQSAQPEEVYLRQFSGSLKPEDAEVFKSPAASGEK

CC(C)=CCC/C(C)=C/CNC(=O)C1CC1 [NGCC, N-geranylcyclopropylcarboxamide]
inward current in cells expressing hTRPV1 (hTRPV1): triggered an inward current | activation of ASIC1a homomeric channels (mASIC1a): not sensitive
